Test results: patent US20240239786A1, “COMPOSITIONS AND METHODS FOR THE TREATMENT AND PREVENTION OF CANCER” (Yale University, priority 2021, published 2024)

Tests used:
Rad51 foci = assay: Nuclear Rad51 foci by confocal microscopy in SKOV3 cells; type: cell-based; conditions: for Rad51 foci, single agent: 30 μM DB4 or 25 μM olaparib
Source text: Cells were transfected with the ISceI-expressing plasmid and then treated various concentrations of DB4 for 48 hr. Cells were harvested, stained with 7-AAD, and analyzed by flow cytometry for GFP-positive cells indicative of HR repair activity. […] Cells were transfected with the ISceI-expressing plasmid and treated with various concentrations of DB4. Cells were harvested, stained with 7-AAD, and stained, and analyzed by flow cytometry for GFP-positive cells indicative of NHEJ activity. Data are means±SD (N=3). *, p<0.05; **, p<0.01, compared with the 0 μM control of ISceI-transected cells. FIG. 7C depicts representative results of confocal imaging of olaparib-induced nuclear Rad51 foci in SKOV3 cells treated DB4. Cells were treated with 30 μM DB4 for 1 hr and then treated with 25 μM olaparib or 6 hr. Cells were fixed, permeabilized, and stained with the anti-Rad51 antibody and the Alexa Fluor 488-conjugated secondary antibody. Nuclei were counterstained with DAPI. Immunofluorescence of Rad51 foci and nuclei were visualized by confocal microscopy. […] Cells were also scored for nuclei containing equal or more than 10 distinct Rad51 foci to determine the percentage of cells positive for Rad51 foci. Data are means±SD (N=10). p<0.001, compared between indicated treatment groups. […] Cells were pre-treated with 30 μM DB4 and then treated with 25 μM olaparib for 24 hr. Protein was assessed by western blot analysis for the levels of γH2AX, p-H1, cyclin A2, p-CDK1/2, and HSC70. Cropped gel images of protein bands are presented. Full-length gel images are shown in FIG. 15. p-H1, cyclin A2, p-CDK1/2, and HSC70 bands were from re-probing the same blot. The γH2AX band was from a duplicated blot. […] The band density of γH2AX indicative of DSBs was quantified by densitometry. […]
To interrogate whether DB4 inhibited PARP inhibitor-induced DSB repair, nuclear Rad51 foci were determined in SKOV3 cells. […]
SKOV3 cells were grown for 24 hr prior to drug treatment. […] Nuclei containing equal or more than 10 Rad51 foci were counted to determine % Rad51-positive cells.

PEO4 cells = assay: Flow cytometric EdU incorporation (DNA synthesis) assay, PEO4; type: cell-based; conditions: for time-dependent inhibition of DNA synthesis (EdU-positive cells): 30 μM DB4 or 1 μM triapine, 3, 6, 24 hr
Experimental: Cells were plated for 24 hr and then treated with 50 μM compounds for 72 hr. For a positive control, cells were treated with 1 μM triapine for 72 hr. The percentage of cell survival was determined by the MTS cytotoxicity assay. […] Cells were treated with 50 μM compounds or 1 μM triapine for 24 hr. During the last hour, cells were pulse-labeled with EdU, stained with the Click-iT EdU Alexa Fluor 488 Assay Kit, counterstained with 7-AAD, and subsequently analyzed by flow cytometry. EdU-positive cells were gated to determine the percentage of the S phase cell population. The bivariate plots of Alexa Fluor 488 (EdU-positive) and PE-Cy5 (7-AAD-positive) are shown. […] Cells were treated with 50 μM compounds or 1 μM triapine for 24 hr. During the last hour, cells were pulse-labeled with EdU, stained with the Click-iT EdU Alexa Fluor 488 Assay Kit, counterstained with 7-AAD, and subsequently analyzed by flow cytometry. EdU-positive cells were gated to determine the percentage of the S phase cell population. The percentages of DNA synthesis in cells treated with each of 10 compounds and triapine relative to the DMSO-treated control is calculated and shown. FIG. 2D depicts representative results of dNTP measurement on triapine and DB4 in PEO4 cells. Cells were treated with 1 μM triapine or 50 μM DB4 for 24 hr. Cells were extracted with 65% methanol for determination of each of dNTPs expressed as pmole/10^6 cells. Data are means±SD (N=3). *, p<0.05; **, p<0.01; ***, p<0.001, compared with the DMSO-treated control in each dNTP. […] The percentage of cell survival was determined by the MTS cytotoxicity assay. […]
PEO1 cells were treated with 30 μM DB4 or 1 μM triapine for indicated times, pulsed with EdU for 1 hr and subsequently assayed for DNA synthesis inhibition as described in FIG. 2B. […] Protein was analyzed by western blotting for p-Chk1, p-ATR, p-RPA32, γH2AX, and HSC70. […] DSB end resection is assessed by the level of p-RPA32. […]

Structure (SMILES)	Rad51 foci, single agent (Rad51 foci)	time-dependent inhibition of DNA synthesis (EdU-positive cells) (PEO4 cells)	inhibition at 50 µM (PEO4 cells; 50 μM, 24 hr) [%]	olaparib-induced Rad51 foci (Rad51 foci; 30 μM DB4 1 hr then 25 μM olaparib)
O=C(c1cc(Cc2n[nH]c(=O)c3ccccc23)ccc1F)N1CCN(C(=O)C2CC2)CC1 [olaparib, reference compound]	induced a pronounced increase in Rad51 foci			
C=CCn1c(SCc2cccc(Cl)c2)nnc1C1CCN(Cc2nc3ccccc3s2)CC1 [DB4, 2-[(4-{4-allyl-5-[(3-chlorobenzyl)thio]-4H-1,2,4-triazol-3-yl}-1-piperidinyl)methyl]-1,3-benzothiazole]	had no effects on Rad51 foci	gradual decline in the EdU-positive cell population	> 99	significantly attenuated
NC(=S)NN=Cc1ncccc1N [triapine, 3-aminopyridine-2-carboxaldehyde-thiosemicarbazone, reference compound]		prompt reduction in EdU-positive cells		
